Tests used:
Type IV PDE = assay: Measurement of type IV PDE inhibiting activity; assay type: biochemical; conditions: type IV PDE partially purified from neutrophils; 3H-cAMP substrate; 30 minutes; read-out: Type IV PDE Inhibitory activity IC50
Method: Type I, III, IV, and V PDE isozymes were prepared to study the PDE inhibiting activities and selectivities of the compound of the invention [Trends Pharmacol Sci., 12, 19-27 (1992)]. Type I PDE was purchased from Sigma Corp. Type III and V PDE isozymes were partially purified from rats platelets, and type IV PDE isozyme was partially purified from neutrophils. Each enzyme source was homogenized in a buffer (pH 6.5) containing 20 mM bisTris, 2 mM EDTA, 0.1 mM PMSF (phenylmethylsulfonyl fluoride), 5 mM 2-mercaptoethanol, 0.01 mM pepstatin, and 0.01 mM leupeptin and was centrifuged at 30,000G for 30 minutes to obtain a supernatant, which was applied to a column (1.5×20 cm) packed with an ion-exchange resin (Q-sepharose First Flow, Pharmacia Corp.) and was eluted with sodium acetate gradient of 0 to 1M. Partially purified isozymes were identified by observing the effects of conventional inhibitor.
Each PDE isozyme and test compounds dissolved in DMSO (i.e., dimethyl sulfoxide) were added to 50 mM Tris-HCl buffer containing 5 mM magnesium chloride. ^3 H-cAMP (for type III and IV PDE) or ^3 H-cGMP (for type I and V PDE) were added as substrates and were reacted for 30 minutes. The reaction was terminated by placing the test tube in boiling water of 100° C. for 5 minutes. The nucleotides formed by PDE were broken down by 5'-nucleotidase to ^3 H-adenosine or 3H-guanosine. The unreacted substrate and reaction product were separated through a column packed with an ion-exchange resin (QAE sephadex). The eluted ^3 H-nucleoside was measured for its radioactivity by a liquid scintillation counter. The inhibiting activities of the compound of the present invention against types I, III and V are 1/10 or less than that against type IV.

[1] = tested on: antigen-induced bronchospasm; assay: Inhibitory effect on antigen-induced bronchospasm (anti-asthmatic action); assay type: in vivo; conditions: Cavia porcellus, iv; ovalbumin-sensitized Hartley male guinea pig; intravenously 10 minutes before 0.2 mg/kg OA i.v.; Konzett-Roessler method; read-out: Action for suppressing antigen-induced bronchospasms ED50
Method: A Hartley male guinea pig was sensitized by intramuscular administration of […] Ovalbumin (OA) on first day and fourth day, and used after 24th day. A trachial canula was introduced in the guinea pig anesthetized with pentobarbital and artificial ventilation was performed 25 to 29 days after the first sensitization. The overflow of the ventilation was measured by the Konzett-Roessler method, while 0.2 mg/kg OA were administered intravenously. The test compound was dissolved in polyethylene glycol 400 and intravenously administered 10 minutes before administration of the antigens.

rat neutrophils = assay: Inhibitory effects on activity of rat neutrophils (release of super oxide anions); assay type: cell-based; conditions: Neutrophil, stimulation with 0.3 μM calcium ionophore A23187, chemiluminescence, read-out: Action for suppressing release of super oxide anions from rat neutrophils IC50
Method: The release of super oxide anions was measured so as to study the inhibitory effects of the compound on inflammatory leukocytes, that is, neutrophils.
Blood sample was obtained from Wister rats anesthetized with ether. It was superposed on a blood cell separation solution (Polymorphoprep 1.113, made by Naicomet Co. (phonetic)) and the neutrophils were separated by centrifugation. The neutrophils were resuspended in a Hank's balanced salt solution at a concentration of 0.5×10^4 cell/ml. 0.1 mM of Lusigenin and the test substance dissolved in DMSO were added to 2 ml of the cell-suspension. The chemiluminescence generated by stimulation of 0.3 μM calcium ionophore A23187 was measured by a chemiluminescence reader so as to evaluate the release of super oxide anions.

Structure (SMILES)	IC50 (Type IV PDE) [nM]	IC50 (rat neutrophils) [nM]	ED50 [1] [mg/kg]
COc1ccc(C2C=NNC(=O)C2)cc1OCC(C)(C)C (stereo not shown) [Compound No. 15, 5-[3-(2,2-dimethylpropoxy)-4-methoxyphenyl]-2,3,4,5-tetrahydropyridazin-3-one]	4800	–	–
CCCCOc1cc(C2C=NN(C)C(=O)C2)ccc1OC (stereo not shown) [Compound No. 23, 5-(3-butoxy-4-methoxyphenyl)-2-methyl-2,3,4,5-tetrahydropyridazin-3-one]	6300	–	0.53
COc1ccc(C2C=NN(C)C(=O)C2)cc1OCC(C)(C)C (stereo not shown) [Compound No. 21, 5-[3-(2,2-dimethylpropoxy)-4-methoxyphenyl]-2-methyl-2,3,4,5-tetrahydropyridazin-3-one]	3900	–	–
COc1ccc(C2C=NNC(=O)C2)cc1OC (stereo not shown) [Compound No. 1, 5-(3,4-dimethoxyphenyl)-2,3,4,5-tetrahydropyridazin-3-one]	9300	14000	–
COc1ccc(C2CC(=O)NN=C2c2ccccc2)cc1OC1CCCC1 (stereo not shown) [Compound No. 28, 5-(3-cyclopentyloxy-4-methoxyphenyl)-6-phenyl-2,3,4,5-tetrahydropyridazin-3-one]	19000	–	–
COc1ccc(C2C=NN(c3ccccc3)C(=O)C2)cc1OC (stereo not shown) [Compound No. 2, 5-(3,4-dimethoxyphenyl)-2-phenyl-2,3,4,5-tetrahydropyridazin-3-one]	4200	1700	–
CCC(CC)COc1cc(C2C=NN(C)C(=O)C2)ccc1OC (stereo not shown) [Compound No. 24, 5-[4-methoxy-3-(2-ethylbutoxy)phenyl]-2-methyl-2,3,4,5-tetrahydropyridazin-3-one]	340	–	–
CCC(CC)COc1cc(C2C=NNC(=O)C2)ccc1OC (stereo not shown) [Compound No. 14, 5-[3-(2-ethylbutoxy)-4-methoxyphenyl]-2,3,4,5-tetrahydropyridazin-3-one]	2300	–	–
COc1ccc(C2C=NN(C)C(=O)C2)cc1OCCc1ccccc1 (stereo not shown) [Compound No. 19, 5-(4-methoxy-3-phenethyloxyphenyl) -2-methyl-2,3,4,5-tetrahydropyridazin-3-one]	2700	–	–
CCCCOc1cc(C2C=NNC(=O)C2)ccc1OC (stereo not shown) [Compound No. 13, 5-(3-butoxy-4-methoxyphenyl)-2,3,4,5-tetrahydropyridazin-3-one]	3400	–	1.4
COc1ccc(C2C=NN(C)C(=O)C2)cc1OCC1(C)CC1 (stereo not shown) [Compound No. 22, 5-[4-methoxy-3-[(1-methylcyclopropyl)methyloxy]phenyl]-2-methyl-2,3,4,5-tetrahydropyridazin-3-one]	2700	–	2.37
COc1ccc(C2CC(=O)NN=C2C)cc1OC (stereo not shown) [compound 27, 5-(3,4-dimethoxyphenyl)-6-methyl-2,3,4 5-tetrahydropyridazin-3-one]	18000	15000	–
COc1ccc(C2C=NN(C)C(=O)C2)cc1OCC1CC1 (stereo not shown) [Compound No. 18, 5-(3-cyclopropylmethyloxy-4-methoxyphenyl) -2-methyl-2,3,4,5-tetrahydropyridazin-3-one]	4600	–	0.12
COc1ccc(C2C=NNC(=O)C2)cc1OCc1ccccc1 (stereo not shown) [Compound No. 7, 5-(3-benzyloxy-4-methoxyphenyl)-2,3,4,5-tetrahydropyridazin-3-one]	8700	–	–

Further molecules by falling IC50 (Type IV PDE), results first:

IC50 (Type IV PDE) [nM]	IC50 (rat neutrophils) [nM]	Structure (SMILES)	ED50 [1] [mg/kg]
2500	–	COc1ccc(C2CNNC(=O)C2)cc1OC1CCCC1 (stereo not shown) [Compound No. 4, 5-(3-cyclopentyloxy-4-methoxyphenyl)hexahydropyridazin-3-one]	2.1
2300	–	COc1ccc(C2C=NN(C)C(=O)C2)cc1OCC(C)C (stereo not shown) [Compound No. 20, 5-[4-methoxy-3-(2-methylpropoxy)phenyl]-2-methyl-2,3,4,5-tetrahydropyridazin-3-one]	0.97
1600	–	COc1ccc(C2C=NNC(=O)C2)cc1OCC1CC1 (stereo not shown) [Compound No. 10, 5-(3-cyclopropylmethyloxy-4-methoxyphenyl)-2,3,4,5-tetrahydropyridazin-3-one]	0.074
1600	–	COc1ccc(C2C=NNC(=O)C2)cc1OCCc1ccccc1 (stereo not shown) [Compound No. 8, 5-(4-methoxy-3-phenethyloxyphenyl)-2,3,4,5-tetrahydropyridazin-3-one]	4.2
1400	–	COc1ccc(C2C=NN(C)C(=O)C2)cc1OCC1(c2ccccc2)CC1 (stereo not shown) [Compound No. 26, 5-[4-methoxy-3-[(1-phenylcyclopropyl)methyloxy]phenyl]-2-methyl-2,3,4,5-tetrahydropyridazin-3-one]	–
1200	–	COc1ccc(C2C=NNC(=O)C2)cc1OCC1(C)CC1 (stereo not shown) [Compound No. 11, 5-[4-methoxy-3-[(1-methylcyclopropyl)methyloxy]phenyl]2,3,4,5-tetrahydropyridazin-3-one]	0.82
1100	–	COc1ccc(C2C=NNC(=O)C2)cc1OCC(C)C (stereo not shown) [Compound No. 12, 5-[4-methoxy-3-(2-methylpropoxy)phenyl]-2,3,4,5-tetrahydropyridazin-3-one]	1.05
750	–	COc1ccc(C2C=NNC(=O)C2)cc1OCC1(c2ccccc2)CC1 (stereo not shown) [Compound No. 25, 5-[4-methoxy-3-[(1-phenylcyclopropyl)methyloxy]phenyl]-2,3,4,5-tetrahydropyridazin-3-one]	–
670	430	COc1ccc(C2C=NN(C)C(=O)C2)cc1OC1CCCC1 (stereo not shown) [Compound No. 5, 5-(3-cyclopentyloxy-4-methoxyphenyl)-2-methyl-2,3,4,5-tetrahydropyridazin-3-one]	–
630	–	COc1ccc(C2C=NN(C)C(=O)C2)cc1OC1Cc2ccccc2C1 (stereo not shown) [Compound No. 17, 5-[3-(2-indanyloxy)-4-methoxyphenyl]-2-methyl-2,3,4,5-tetrahydropyridazin-3-one]	–
420	30	COc1ccc(C2C=NNC(=O)C2)cc1OC1CCCC1 (stereo not shown) [Compound No. 3, 5-(3-cyclopentyloxy-4-methoxyphenyl)-2,3,4,5-tetrahydropyridazin-3-one]	0.4
330	–	COc1ccc(C2C=NNC(=O)C2)cc1OCCCCCc1ccccc1 (stereo not shown) [Compound No. 16, 5-[4-methoxy-3-(5-phenylpentyloxy)phenyl]-2,3,4,5-tetrahydropyridazin-3-one]	–
180	130	COc1ccc(C2C=NN(Cc3ccccc3)C(=O)C2)cc1OC1CCCC1 (stereo not shown) [Compound No. 6, 2-benzyl-5-(3-cyclopentyloxy-4-methoxyphenyl)-2,3,4,5-tetrahydropyridazin-3-one]	3.2
170	–	COc1ccc(C2C=NNC(=O)C2)cc1OC1Cc2ccccc2C1 (stereo not shown) [Compound No. 9, 5-[3-(2-indanyloxy)-4-methoxyphenyl]-2,3,4,5-tetrahydropyridazin-3-one]	–

Reference: patent publication US6235739A, “5-phenyl-3-pyridazinone derivatives and drug composition containing the same” (Nikken Chemicals Co., Ltd., priority 1996, dated 2001)
